US20230265083A1, “Heterocycle CDK Inhibitors And Their Use Thereof” (Prelude Therapeutics Incorporated, priority 2020, published 2023)

Tests used:
[1] = tested on: H929 cells; experiment: CellTiter-Glo Protocol (Proliferation); assay type: cell-based; settings: Homo sapiens, NCI-H929, 24 hours, read-out: PROLIFERATION_CTG_H929 IC50
Method: CellTiter-Glo® Protocol (Proliferation)
Dispense 10 μL aliquot of prepared H929 cells (1:1 ratio of cells: Trypan Blue (#1450013, Bio-Rad)) onto cell counting slide (#145-0011, Bio-Rad) and obtain cell density and cell viability using a cell counter (TC20, Bio-Rad). Remove appropriate volume of resuspended cells from culture flask to accommodate 4000 cells/well at 10 μL/well. Transfer H929 cells to 50 mL conical (#430290, Corning). Spin down at 1000 rpm for 5 min. using a tabletop centrifuge (SPINCHRON 15, Beckman). Discard supernatant and resuspend cell pellet in modified RPMI 1640 (#10-040-CV, Corning) cell culture media containing 10% FBS (F2422-500ML, Sigma), sodium pyruvate (100 mM) (#25-000-CL, Corning), HEPES buffer (1M) (#25-060-CL, Corning) and glucose (200 g/L) (A24940-01, Gibco) to a cell density of 400,000 cells/mL. Dispense 10 μL of resuspended H929 cells per well in 384-well small volume TC treated plate (#784080, Greiner Bio-one) using standard cassette (#50950372, Thermo Scientific) on Multidrop Combi (#5840310, Thermo Scientific) in laminar flow cabinet. Dispense compounds onto plates using a digital liquid dispenser (D300E, Tecan). Incubate plates in humidified tissue culture incubator at 37° C. for 24 hours. Add 10 μL of prepared CellTiTer-Glo® detection buffer (G7570, Promega) to each well of 384-well plate using small tube cassette (#24073295, Thermo Scientific) on Combi multi-drop, incubate at RT for 30-60 min. Read plates with a microplate reader (PheraStar, BMG Labtech) using 384 well luminescence mode. See Table B (Proliferation_CTG_H929).

[2] = target: T1, CDK4/Cyclin D1 (Homo sapiens, UniProt P11802); experiment: CDK4/CyclinD1 Enzymatic Activity Assay (TR-FRET); assay type: biochemical; settings: ATP 2 mM, recombinant CDK4/Cyclin D1 1 nM, read-out: CDK4_D1 IC50
T1 construct: purchased ProQinase; host or cells: insect cell
T1 sequence (P11802 whole entry): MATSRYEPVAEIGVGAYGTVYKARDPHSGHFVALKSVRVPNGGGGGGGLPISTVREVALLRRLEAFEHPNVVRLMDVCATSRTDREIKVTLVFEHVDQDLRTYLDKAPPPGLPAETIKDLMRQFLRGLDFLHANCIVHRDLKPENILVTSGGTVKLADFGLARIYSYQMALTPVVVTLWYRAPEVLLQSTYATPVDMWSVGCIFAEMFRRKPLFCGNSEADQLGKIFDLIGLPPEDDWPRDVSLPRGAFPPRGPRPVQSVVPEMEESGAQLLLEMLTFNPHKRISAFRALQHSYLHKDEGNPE
T1 sequence (P24385 whole entry partner): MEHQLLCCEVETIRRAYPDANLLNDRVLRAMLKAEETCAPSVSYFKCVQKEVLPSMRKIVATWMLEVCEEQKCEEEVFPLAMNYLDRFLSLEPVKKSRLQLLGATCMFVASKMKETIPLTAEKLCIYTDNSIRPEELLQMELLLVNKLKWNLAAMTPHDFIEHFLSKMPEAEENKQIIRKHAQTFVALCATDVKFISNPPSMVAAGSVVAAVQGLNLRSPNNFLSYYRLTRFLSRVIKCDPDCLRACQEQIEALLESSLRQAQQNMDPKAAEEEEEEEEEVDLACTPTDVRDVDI
Method: CDK4/CyclinD1 Enzymatic Activity Assay
(§1) The inhibitory activity of compounds was evaluated in vitro using TR-FRET assay with white 384-well low volume microplate (Greiner Bio-One). CDK4/Cyclin D1 catalyzed phosphorylation of peptides in the presence and absence of compounds was measured and used in IC50 determination. Recombinant protein complex CDK4/Cyclin D1, expressed from insect cell, was purchased from ProQinase. Testing compounds were dissolved in DMSO at 1 mM and tested in 9-dose IC50 mode. The reaction mixture was prepared by mixing CDK4/CyclinD1 (1 nM final), ULight-4E-BP1 (100 nM final, Perkinelmer, TRF0128-D), and ATP (2 mM final) in assay buffer (20 mM of HEPES pH 7.4, 1 mM of EGTA, 0.05% BSA, 0.005% Tween 20, and 1 mM TCEP). The compound of interest in DMSO was added to each well in 3-fold serial dilution by the dispenser (TECAN D300E) to make a 9.9 μL of the reaction mixture. After 20 minutes of preincubation at room temperature, 0.1 μL MgCl2 (10 mM final) was added to initiate the reaction. Following a 45 minutes incubation at 37° C., the reaction was stopped by the addition of 2 μL of quenching buffer consisting of Lance detection buffer (Perkinelmer CR97-100C), LANCE Ultra Europium-anti-P-4E-BP1 (Perkinelmer, TRF0216-D), EDTA, and incubate at room temperature for additional 60 minutes in the dark. The reaction signal was measured by Envision multimode plate reader (PerkinElmer, 2102-0010). IC50 values were determined by fitting the data to the standard 4 parameters with Hill Slope using GraphPad Prism software.

[3] = target: T2, CDK9/Cyclin T1 (Homo sapiens, UniProt P50750); experiment: CDK9/CyclinT1 Enzymatic Activity Assay (TR-FRET); assay type: biochemical; settings: ATP 1 mM, recombinant CDK9/Cyclin T1 1 nM, read-out: CDK9_T1 IC50
T2 construct: purchased ProQinase; host or cells: insect cell
T2 sequence (P50750 whole entry): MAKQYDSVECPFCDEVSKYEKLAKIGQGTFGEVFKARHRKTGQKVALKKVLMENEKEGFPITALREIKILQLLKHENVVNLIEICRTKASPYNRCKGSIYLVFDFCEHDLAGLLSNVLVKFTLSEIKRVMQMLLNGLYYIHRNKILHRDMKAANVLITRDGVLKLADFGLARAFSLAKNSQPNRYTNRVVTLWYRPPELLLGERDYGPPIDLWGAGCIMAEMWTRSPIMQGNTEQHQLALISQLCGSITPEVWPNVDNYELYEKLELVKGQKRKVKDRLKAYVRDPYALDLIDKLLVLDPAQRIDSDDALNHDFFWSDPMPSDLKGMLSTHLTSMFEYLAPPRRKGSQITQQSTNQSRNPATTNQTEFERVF
T2 sequence (O60563 whole entry partner): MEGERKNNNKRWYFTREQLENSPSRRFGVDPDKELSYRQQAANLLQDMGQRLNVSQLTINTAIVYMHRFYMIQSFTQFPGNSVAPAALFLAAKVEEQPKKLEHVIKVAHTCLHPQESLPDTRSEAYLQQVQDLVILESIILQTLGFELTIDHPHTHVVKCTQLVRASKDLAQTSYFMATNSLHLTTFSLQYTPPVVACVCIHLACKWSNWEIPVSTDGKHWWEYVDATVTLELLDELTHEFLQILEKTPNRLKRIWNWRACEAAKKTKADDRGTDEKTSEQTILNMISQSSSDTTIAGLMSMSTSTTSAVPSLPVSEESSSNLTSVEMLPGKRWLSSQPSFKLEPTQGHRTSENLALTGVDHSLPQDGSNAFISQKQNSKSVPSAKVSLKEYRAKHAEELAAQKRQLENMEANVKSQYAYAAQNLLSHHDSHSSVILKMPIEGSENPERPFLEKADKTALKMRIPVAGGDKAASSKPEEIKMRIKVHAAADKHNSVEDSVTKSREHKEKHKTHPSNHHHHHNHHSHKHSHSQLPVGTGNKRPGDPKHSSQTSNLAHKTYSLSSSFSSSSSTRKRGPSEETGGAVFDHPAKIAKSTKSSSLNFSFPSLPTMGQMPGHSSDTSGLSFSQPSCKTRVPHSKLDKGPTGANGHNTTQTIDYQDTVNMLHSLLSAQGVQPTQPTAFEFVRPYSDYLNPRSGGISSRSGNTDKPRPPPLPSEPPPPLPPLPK
Method: CDK9/CyclinT1 Enzymatic Activity Assay
as §1, with “Bio-One). CDK9/Cyclin T1” for “Bio-One). CDK4/Cyclin D1”, “complex CDK9/Cyclin T1,” for “complex CDK4/Cyclin D1,”, “mixing CDK9/CyclinT1” for “mixing CDK4/CyclinD1”, “ULight-4E-BP1 (50” for “ULight-4E-BP1 (100”, “ATP (1” for “ATP (2”

[4] = target: T3, CDK2/Cyclin A2 (Homo sapiens, UniProt P24941); experiment: CDK2/CyclinA2 Enzymatic Activity Assay (TR-FRET); assay type: biochemical; settings: ATP 1 mM, recombinant CDK2/Cyclin A2 1 nM, read-out: CDK2_A2 IC50
T3 construct: purchased ProQinase; host or cells: insect cell
Method: CDK2/CyclinA2 Enzymatic Activity Assay
The inhibitory activity of compounds was evaluated in vitro using TR-FRET assay with white 384-well low volume microplate (Greiner Bio-One). CDK2/Cyclin A2 catalyzed phosphorylation of peptides in the presence and absence of compounds was measured and used in IC50 determination. Recombinant protein complex CDK2/Cyclin A2, expressed from insect cell, was purchased from ProQinase. Testing compounds were dissolved in DMSO at 1 mM and tested in 9-dose IC50 mode. The reaction mixture was prepared by mixing CDK2/CyclinA2 (1 nM final), ULight-4E-BP1 (50 nM final, Perkinelmer, TRF0128-D), and ATP (1 mM final) in assay buffer (20 mM of HEPES pH 7.4, 1 mM of EGTA, 0.05% BSA, 0.005% Tween 20, and 1 mM TCEP). The compound of interest in DMSO was added to each well in 3-fold serial dilution by the dispenser (TECAN D300E) to make a 9.9 μL of the reaction mixture. After 20 minutes preincubation at room temperature, 0.1 μL MgCl2 (10 mM final) was added to initiate the reaction. Following a 45 minutes incubation at 37° C., the reaction was stopped by addition of 2 μL of quenching buffer consisting of Lance detection buffer (Perkinelmer CR97-100C), LANCE Ultra Europium-anti-P-4E-BP1 (Perkinelmer, TRF0216-D), EDTA, and incubate at room temperature for additional 60 minutes in the dark. The reaction signal was measured by Envision multimode plate reader (PerkinElmer, 2102-0010). IC50 values were determined by fitting the data to the standard 4 parameters with Hill Slope using GraphPad Prism software.

## CC(=O)N[C@@H]1CCC[C@H](C(=O)Nc2cc(-c3cccc4c3CCN4)c(Cl)cn2)C1 [Example 1, (1S,3R)-3-acetamido-N-(5-chloro-4-(indolin-4-yl)pyridin-2-yl)cyclohexane-1-carboxamide]
[1]
  IC50: 20 to 200 nM
[2]
  IC50: 200 to 1000 nM
[3]
  IC50: < 20 nM

## CC(=O)N[C@@H]1CCC[C@H](C(=O)Nc2cc(-c3cccc4c3CC(C)N4)c(Cl)cn2)C1 (stereo partly drawn) [Example 2, (1S,3R)-3-acetamido-N-(5-chloro-4-(2-methylindolin-4-yl)pyridin-2-yl)cyclohexane-1-carboxamide]
[1]
  IC50: 20 to 200 nM
[2]
  IC50: 200 to 1000 nM
[3]
  IC50: < 20 nM

## CC(=O)N[C@@H]1CCC[C@H](C(=O)Nc2cc(-c3cccc4c3CCCN4)c(Cl)cn2)C1 [Example 3, (1S,3R)-3-acetamido-N-(5-chloro-4-(1,2,3,4-tetrahydroquinolin-5-yl)pyridin-2-yl)cyclohexane-1-carboxamide]
[1]
  IC50: 20 to 200 nM
[2]
  IC50: > 1000 nM
[3]
  IC50: 20 to 200 nM

## CC(=O)N[C@@H]1CCC[C@H](C(=O)Nc2cc(-c3cccc4c3OCCN4)c(Cl)cn2)C1 [Example 4, (1S,3R)-3-acetamido-N-(5-chloro-4-(3,4-dihydro-2H-benzo[b][1,4]oxazin-8-yl)pyridin-2-yl)cyclohexane-1-carboxamide]
[1]
  IC50: 20 to 200 nM
[2]
  IC50: > 1000 nM
[3]
  IC50: < 20 nM

## CC(=O)N[C@@H]1CCC[C@H](C(=O)Nc2cc(-c3cccc4c3CC(C)(C)N4)c(Cl)cn2)C1 [Example 5, (1S,3R)-3-acetamido-N-(5-chloro-4-(2,2-dimethylindolin-4-yl)pyridin-2-yl)cyclohexane-1-carboxamide]
[1]
  IC50: 20 to 200 nM
[4]
  IC50: > 1000 nM
[2]
  IC50: 20 to 200 nM
[3]
  IC50: < 20 nM

## Cc1cnc(NC(=O)[C@H]2CCC[C@@H](NC(=O)CC#N)C2)cc1-c1cccc2c1CC(C)(C)N2 [Example 6, (1S,3R)-3-(2-cyanoacetamido)-N-(4-(2,2-dimethylindolin-4-yl)-5-methylpyridin-2-yl)cyclohexane-1-carboxamide]
[2]
  IC50: > 1000 nM
[3]
  IC50: < 20 nM

## Cc1cnc(NC(=O)[C@H]2CCC[C@@H](NC(=O)CC#N)C2)cc1-c1cccc2c1OCC(C)(C)N2 [Example 7, (1S,3R)-3-(2-cyanoacetamido)-N-(4-(3,3-dimethyl-3,4-dihydro-2H-benzo[b][1,4]oxazin-8-yl)-5-methylpyridin-2-yl)cyclohexane-1-carboxamide]
[1]
  IC50: 200 to 1000 nM
[4]
  IC50: > 1000 nM
[2]
  IC50: > 1000 nM
[3]
  IC50: 20 to 200 nM

## CC(=O)N[C@@H]1CCC[C@H](C(=O)Nc2cc(-c3cccc4c3OCC(C)(C)N4)c(Cl)cn2)C1 [Example 9, (1S,3R)-3-acetamido-N-(5-chloro-4-(3,3-dimethyl-3,4-dihydro-2H-benzo[b][1,4]oxazin-8-yl)pyridin-2-yl)cyclohexane-1-carboxamide]
[2]
  IC50: > 1000 nM
[3]
  IC50: < 20 nM

## N#CCC(=O)N[C@@H]1CCC[C@H](C(=O)Nc2cc(-c3cccc4c3OCCN4)c(Cl)cn2)C1 [Example 10, (1S,3R)—N-(5-chloro-4-(3,4-dihydro-2H-benzo[b][1,4]oxazin-8-yl)pyridin-2-yl)-3-(2-cyanoacetamido)cyclohexane-1-carboxamide]
[2]
  IC50: 20 to 200 nM
[3]
  IC50: < 20 nM

## CC1(C)COc2c(cccc2-c2cc(NC(=O)[C@H]3CCC[C@@H](NC(=O)CC#N)C3)ncc2Cl)N1 [Example 11, (1S,3R)—N-(5-chloro-4-(3,3-dimethyl-3,4-dihydro-2H-benzo[b][1,4]oxazin-8-yl)pyridin-2-yl)-3-(2-cyanoacetamido)cyclohexane-1-carboxamide]
[2]
  IC50: > 1000 nM
[3]
  IC50: < 20 nM

## N#CCC(=O)N[C@@H]1CCC[C@H](C(=O)Nc2cc(-c3cc(F)cc4c3OCCN4)c(Cl)cn2)C1 [Example 12, (1S,3R)—N-(5-chloro-4-(6-fluoro-3,4-dihydro-2H-benzo[b][1,4]oxazin-8-yl)pyridin-2-yl)-3-(2-cyanoacetamido)cyclohexane-1-carboxamide]
[4]
  IC50: 200 to 1000 nM
[2]
  IC50: 20 to 200 nM
[3]
  IC50: < 20 nM

## CC1COc2c(cc(F)cc2-c2cc(NC(=O)[C@H]3CCC[C@@H](NC(=O)CC#N)C3)ncc2Cl)N1 (stereo partly drawn) [Example 13, (1S,3R)—N-(5-chloro-4-(6-fluoro-3-methyl-3,4-dihydro-2H-benzo[b][1,4]oxazin-8-yl)pyridin-2-yl)-3-(2-cyanoacetamido)cyclohexane-1-carboxamide]
[2]
  IC50: 20 to 200 nM
[3]
  IC50: < 20 nM

## CC(=O)N[C@@H]1CCC[C@H](C(=O)Nc2cc(-c3cccc4c3CC(C)(C)O4)c(Cl)cn2)C1 [Example 14, (1S,3R)-3-acetamido-N-(5-chloro-4-(2,2-dimethyl-2,3-dihydrobenzofuran-4-yl)pyridin-2-yl)cyclohexane-1-carboxamide]
[1]
  IC50: 200 to 1000 nM
[2]
  IC50: > 1000 nM
[3]
  IC50: < 20 nM

## CC1(C)Cc2cccc(-c3cc(NC(=O)[C@H]4CCC[C@@H](NC(=O)CC#N)C4)ncc3Cl)c2O1 [Example 15, (1S,3R)—N-(5-chloro-4-(2,2-dimethyl-2,3-dihydrobenzofuran-7-yl)pyridin-2-yl)-3-(2-cyanoacetamido)cyclohexane-1-carboxamide]
[2]
  IC50: > 1000 nM
[3]
  IC50: < 20 nM
